Experimental data published in patent publication US20070264355A1, “BINARY COMPOSITIONS AND METHODS FOR STERILIZATION” (Binary, LLC, priority 2005, published 2007).
Where “and” joins values, the source holds several entries; their conditions need not be identical. Equal values may be shown once.

What was measured:
[1] = system: Escherichia coli (ATCC 25922); assay: Microbicidal activity against Escherichia coli (suspension test, surviving CFU); format: cell-based; settings: inoculum 1630000 CFU
Source text: Each solution was used alone for the individual controls. Organism suspensions were used to achieve a final target concentration of 2-3×10^6 CFU per ml. For the binary system treatments, sodium hypochlorite solution and hydrogen peroxide solution, non-acidified or acidified, were sequentially added to the microorganisms. Acidified hydrogen peroxide solution was obtained by the addition of 1.0% v/v of 0.001 N hydrochloride solution. After each addition, the resulting mixture was allowed to remain in contact with the organisms for a set amount of time at room temperature (about 22° C.), as listed in the Tables 1 and 2. At the end of the treatment time, the mixtures were neutralized with 200 to 500 microliters of thiosulfate solution (2.4%) to quench the activity of sodium hypochlorite and then treated with 100 to 200 microliters of a 1% catalase solution, containing a minimum of 100 units/ul, to quench the hydrogen peroxide activity. If needed, an appropriate volume of sterile saline was added to bring the final volume of reaction mixture to 1.4 ml after neutralization. Serial dilution plate counts were performed from the contents of each vial in sterile saline and inoculated onto TSA for quantitative culture. Plates were then incubated at 37° C. and counts taken at 24 hours. […]

[2] = system: Bacillus subtilis (ATCC 19659) spores; assay: Microbicidal activity against Bacillus subtilis spores (suspension test, surviving CFU); format: cell-based
Source text: Each solution was used alone for the individual controls. Organism suspensions were used to achieve a final target concentration of 2-3×10^6 CFU per ml. For the binary system treatments, sodium hypochlorite solution and hydrogen peroxide solution, non-acidified or acidified, were sequentially added to the microorganisms. Acidified hydrogen peroxide solution was obtained by the addition of 1.0% v/v of 0.001 N hydrochloride solution. After each addition, the resulting mixture was allowed to remain in contact with the organisms for a set amount of time at room temperature (about 22° C.), as listed in the Tables 1 and 2. At the end of the treatment time, the mixtures were neutralized with 200 to 500 microliters of thiosulfate solution (2.4%) to quench the activity of sodium hypochlorite and then treated with 100 to 200 microliters of a 1% catalase solution, containing a minimum of 100 units/ul, to quench the hydrogen peroxide activity. If needed, an appropriate volume of sterile saline was added to bring the final volume of reaction mixture to 1.4 ml after neutralization. Serial dilution plate counts were performed from the contents of each vial in sterile saline and inoculated onto TSA for quantitative culture. Plates were then incubated at 37° C. and counts taken at 24 hours.
Suspensions of Bacillus subtilis (ATCC 19659) containing 100% spores, as confirmed by microscopy, were obtained by washing the spun-down cells with 50% ethanol to eliminate the vegetative form. Starting inoculum of approximately 1-3×10^6 CFU was used as in Example 1.
[…] The binary system was neutralized 30 minutes after addition of hydrogen peroxide using 2.4% thiosulfate and 1% catalase as described in Example 1.

[3] = NaOCl 0.07 mM 60 min, inoculum 1120000 CFU
[4] = NaOCl 0.07 mM 60 min, inoculum 1865000 CFU
[5] = NaOCl 0.07 mM 120 min, inoculum 1865000 CFU
[6] = NaOCl 0.7 mM 60 min, inoculum 1500000 CFU
[7] = NaOCl 0.71 mM 60 min, inoculum 1120000 CFU
[8] = NaOCl 0.71 mM 60 min, inoculum 1865000 CFU
[9] = NaOCl 0.71 mM 120 min, inoculum 1865000 CFU
[10] = NaOCl 3.5 mM 60 min, inoculum 1500000 CFU
[11] = NaOCl 7.0 mM 60 min, inoculum 1500000 CFU
[12] = NaOCl 7.05 mM 60 min, inoculum 1120000 CFU
[13] = NaOCl 7.05 mM 60 min, inoculum 1865000 CFU
[14] = NaOCl 7.05 mM 120 min, inoculum 1865000 CFU
[15] = NaOCl 70.53 mM 60 min, inoculum 1865000 CFU
[16] = NaOCl 70.53 mM 120 min, inoculum 1865000 CFU
[17] = NaOCl 705.27 mM 60 min, inoculum 1865000 CFU
[18] = NaOCl 705.27 mM 120 min, inoculum 1865000 CFU

[Na+].[O-]Cl [NaOCl, sodium hypochlorite]
Log 10 (CFU + 1) Survivors ([1]; NaOCl 0.01 mM 15 min): 6.1
Total Viability (CFU) ([1]; NaOCl 0.01 mM 15 min): 1218000 CFU
Log 10 (CFU + 1) Survivors ([1]; NaOCl 0.02 mM 15 min): 5.9
Total Viability (CFU) ([1]; NaOCl 0.02 mM 15 min): 784000 CFU
Log 10 (CFU + 1) Survivors ([1]; NaOCl 0.03 mM 15 min): 3.0
Total Viability (CFU) ([1]; NaOCl 0.03 mM 15 min): 994 CFU
Log 10 (CFU + 1) Survivors [2, 3]: 6.2
Total Viability (CFU) [2, 3]: 1666000 CFU
Log 10 (CFU + 1) Survivors [2, 4]: 6.3
Log Reduction [2, 4]: −0.1
Total Viability (CFU) [2, 4]: 2142000 CFU
Log 10 (CFU + 1) Survivors [2, 5]: 6.3
Log Reduction [2, 5]: 0.0
Total Viability (CFU) [2, 5]: 1834000 CFU
Log 10 (CFU + 1) Survivors [2, 6]: 3.5
Log Reduction [2, 6]: 2.7 and 2.66
Total Viability (CFU) [2, 6]: 3304 CFU
Log 10 (CFU + 1) Survivors [2, 7]: 3.5
Total Viability (CFU) [2, 7]: 2898 CFU
Log 10 (CFU + 1) Survivors [2, 8]: 4.2
Log Reduction [2, 8]: 2.1
Total Viability (CFU) [2, 8]: 14840 CFU
Log 10 (CFU + 1) Survivors [2, 9]: 3.2
Log Reduction [2, 9]: 3.1
Total Viability (CFU) [2, 9]: 1526 CFU
Log 10 (CFU + 1) Survivors [2, 10]: 2.7
Log Reduction [2, 10]: 3.4 and 3.44
Total Viability (CFU) [2, 10]: 546 CFU
Log 10 (CFU + 1) Survivors [2, 11]: 1.3
Log Reduction [2, 11]: 4.9 and 4.87
Total Viability (CFU) [2, 11]: 20 CFU
Log 10 (CFU + 1) Survivors [2, 12]: 1.3
Total Viability (CFU) [2, 12]: 17 CFU
Log 10 (CFU + 1) Survivors [2, 13]: 1.6
Log Reduction [2, 13]: 4.6
Total Viability (CFU) [2, 13]: 43 CFU
Log 10 (CFU + 1) Survivors [2, 14]: 0.0
Log Reduction [2, 14]: 6.3
Total Viability (CFU) [2, 14]: 0 CFU
Log 10 (CFU + 1) Survivors [2, 15]: 0.0
Log Reduction [2, 15]: 6.3
Total Viability (CFU) [2, 15]: 0 CFU
Log 10 (CFU + 1) Survivors [2, 16]: 0.0
Log Reduction [2, 16]: 6.3
Total Viability (CFU) [2, 16]: 0 CFU
Log 10 (CFU + 1) Survivors [2, 17]: 0.0
Log Reduction [2, 17]: 6.3
Total Viability (CFU) [2, 17]: 0 CFU
Log 10 (CFU + 1) Survivors [2, 18]: 0.0
Log Reduction [2, 18]: 6.3
Total Viability (CFU) [2, 18]: 0 CFU
microbicidal activity (kill of inoculum) ([2]; sodium hypochlorite from 70 mM to 0.07 mM, 60 minutes of exposure, 6.3 log10 CFU inoculum): partial kill
